Our source for the T/C values is PubChem BioAssay AID330 (DTP/NCI, 2004).

In the experiment the test system is P388 leukemia ip, CD2F1 mice, survival T/C. Put plainly: NCI In Vivo Anticancer Drug Screen. Data for tumor model P388 Leukemia (intraperitoneal) in CD2F1 (CDF1) mice. The conditions noted are these: endpoint: median survival time, higher = longer survival. The method, boiled down:
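Mice carrying the transplanted tumor received test compound or vehicle. Survival was recorded in each group, and the value is the treated-group measurement divided by that of the vehicle-treated control group.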

Where [1] appears, read: dose: 50.0 mg/kg/injection, schedule: Q01DX005 (ip), vehicle: saline with Tween-80.
Where [2] appears, read: dose: 100.0 mg/kg/injection, schedule: Q01DX005 (ip), vehicle: saline with Tween-80.
[3] abbreviates: dose: 200.0 mg/kg/injection, schedule: Q01DX005 (ip), vehicle: saline with Tween-80.
The mark [4] stands for this setting: dose: 50.0 mg/kg/injection, schedule: Q01DX005 (ip), vehicle: Klucel (hydroxypropylcellulose) (HPC).
[5] abbreviates: dose: 100.0 mg/kg/injection, schedule: Q01DX005 (ip), vehicle: Klucel (hydroxypropylcellulose) (HPC).
Where [6] appears, read: dose: 200.0 mg/kg/injection, schedule: Q01DX005 (ip), vehicle: Klucel (hydroxypropylcellulose) (HPC).
Where [7] appears, read: dose: 60.0 mg/kg/injection, schedule: Q01DX005 (ip), vehicle: saline.
Setting [8] is: dose: 120.0 mg/kg/injection, schedule: Q01DX005 (ip), vehicle: saline.
Where [9] appears, read: dose: 240.0 mg/kg/injection, schedule: Q01DX005 (ip), vehicle: saline.

Several values for one entry are separate records, joined by “and”; a condition that tells them apart may be missing. Equal entries are not always repeated. Inconclusive results and toxic doses are left out.

As for `C[n+]1c(-c2ccc(/C=N/NC(=O)C(=O)N/N=C/c3ccc(-c4cn5ccccc5[n+]4C)cc3)cc2)cn2ccccc21`, the T/C is, setting by setting: (dose: 7.5 mg/kg/injection, schedule: Q01DX005 (ip), vehicle: saline) 109 % of control; (dose: 15.0 mg/kg/injection, schedule: Q01DX005 (ip), vehicle: saline) 119 % of control.
For the compound `NC(=S)CCCCCC(N)=S`, the T/C under setting [1] is 103 % of control, the T/C under setting [2] was 111 % of control and the T/C under setting [3] is 103 % of control.
In the case of `COc1cc(Br)c(CC(=O)c2ccc3c(c2)OCO3)cc1OC`, the T/C under setting [1] was 86 % of control and the T/C under setting [3] is 87 % of control.
Take `CCOn1nnc2c([N+](=O)[O-])cccc21`: the T/C under setting [1] was 96 % of control and the T/C under setting [2] was 92 % of control.
For `O=C(/C(=C\c1ccccc1[N+](=O)[O-])S(=O)(=O)c1ccccc1)c1ccc([N+](=O)[O-])cc1`, the T/C was 98 % of control under setting [1], 103 % of control under setting [2] and 95 % of control under setting [3].
With `CCOc1ccc2nc(NN=O)sc2c1`, the T/C reads like this: (dose: 1.56 mg/kg/injection, schedule: Q01DX009 (ip), vehicle: water) 100 % of control; (dose: 3.12 mg/kg/injection, schedule: Q01DX009 (ip), vehicle: water) 100 % of control and 95 % of control; (dose: 6.25 mg/kg/injection, schedule: Q01DX009 (ip), vehicle: water) 101 % of control and 98 % of control; (dose: 12.5 mg/kg/injection, schedule: Q01DX009 (ip), vehicle: water) 100 % of control and 104 % of control; (dose: 25.0 mg/kg/injection, schedule: Q01DX009 (ip), vehicle: water) 100 % of control and 101 % of control; (dose: 50.0 mg/kg/injection, schedule: Q01DX009 (ip), vehicle: water) 104 % of control.
For `Cc1ccc(S(=O)(=O)N2c3ccccc3CCN2/C=C/c2ccccc2)cc1`, the T/C reads like this: under setting [4], 100 % of control; under setting [5], 93 % of control; under setting [6], 96 % of control.
As for `CSc1nc(N)c(NS(=O)(=O)c2ccccc2)c(=O)[nH]1`, the T/C runs as follows: (dose: 60.0 mg/kg/injection, schedule: Q01DX005 (ip), vehicle: Klucel (hydroxypropylcellulose) (HPC)) 92 % of control; (dose: 120.0 mg/kg/injection, schedule: Q01DX005 (ip), vehicle: Klucel (hydroxypropylcellulose) (HPC)) 91 % of control; (dose: 240.0 mg/kg/injection, schedule: Q01DX005 (ip), vehicle: Klucel (hydroxypropylcellulose) (HPC)) 90 % of control.
Regarding `CN(C)CCCn1c2c(c3ccccc31)CCCCC2`, the T/C is, setting by setting: under setting [1], 97 % of control; under setting [2], 101 % of control; under setting [3], 94 % of control.
In the case of `CCCc1cc(=O)[nH]c(Sc2ccc([N+](=O)[O-])cn2)n1`, the T/C is 101 % of control (dose: 3.12 mg/kg/injection, schedule: Q01DX005 (ip), vehicle: Klucel (hydroxypropylcellulose) (HPC)); 101 % of control (dose: 6.25 mg/kg/injection, schedule: Q01DX005 (ip), vehicle: Klucel (hydroxypropylcellulose) (HPC)); 106 % of control (dose: 12.5 mg/kg/injection, schedule: Q01DX005 (ip), vehicle: Klucel (hydroxypropylcellulose) (HPC)).
With `CCC(=O)NC(N)=NC#N`, the T/C is, setting by setting: under setting [7], 99 % of control; under setting [8], 101 % of control; under setting [9], 98 % of control.
For `CN(C)C(=S)OCC1OC(OC2(CO)OC(COC(=S)N(C)C)C(O)C2O)C(O)C(O)C1O` (configuration not stated), in that order: 100 % of control, 103 % of control and 103 % of control.
In the case of `COc1cc(OC(=O)N(CCCl)N=O)cc(OC)c1OC`, the T/C was 112 % of control (dose: 12.5 mg/kg/injection, schedule: Q01DX001 (ip), vehicle: Klucel (hydroxypropylcellulose) (HPC)); 101 % of control (dose: 25.0 mg/kg/injection, schedule: Q01DX001 (ip), vehicle: Klucel (hydroxypropylcellulose) (HPC)); 103 % of control (dose: 50.0 mg/kg/injection, schedule: Q01DX001 (ip), vehicle: Klucel (hydroxypropylcellulose) (HPC)).
In the case of `CCN(CC)CCNc1ncnc(N)c1C(=C(C)C)c1ccc(Cl)cc1`, for the setting “dose: 50.0 mg/kg/injection, schedule: Q01DX009 (ip), vehicle: saline with Tween-80”, the T/C is 87 % of control.
For `Nc1cc2nc3ccccc3nc2cc1O`, the T/C reads like this: under setting [1], 90 % of control; under setting [2], 90 % of control; under setting [3], 90 % of control.
Turning to `OCc1c(-c2ccc(Cl)cc2)c(-c2ccc(Cl)cc2)c2n1CCC2`, the T/C runs as follows: under setting [4], 92 % of control; under setting [5], 92 % of control; under setting [6], 92 % of control.
On to `CSC(=S)n1nc(-c2ccccc2)c(N=Nc2cccc(C)c2C)c1C`, for which the T/C is, setting by setting: (dose: 100.0 mg/kg/injection, schedule: Q04DX002 (ip), vehicle: saline with Tween-80) 88 % of control; (dose: 200.0 mg/kg/injection, schedule: Q04DX002 (ip), vehicle: saline with Tween-80) 90 % of control; (dose: 400.0 mg/kg/injection, schedule: Q04DX002 (ip), vehicle: saline with Tween-80) 112 % of control.
With `CC(C)=CC(=O)OC1C2C(C)=CC(O)C(O)C2(C)C2C3(O)OCC24C(CC(=O)OC14)C(C)C3O` (configuration not stated), the T/C was 123 % of control (dose: 0.31 mg/kg/injection, schedule: Q01DX005 (ip), vehicle: distilled water + Tween-80); 160 % of control (dose: 0.75 mg/kg/injection, schedule: Q01DX009 (ip), vehicle: saline with Tween-80); 154 % of control (dose: 1.0 mg/kg/injection, schedule: Q01DX005 (ip), vehicle: distilled water + Tween-80); 154 % of control (dose: 2.0 mg/kg/injection, schedule: Q01DX005 (ip), vehicle: distilled water + Tween-80); 163 % of control (dose: 4.0 mg/kg/injection, schedule: Q01DX005 (ip), vehicle: distilled water + Tween-80); 153 % of control (dose: 5.0 mg/kg/injection, schedule: Q01DX005 (ip), vehicle: distilled water + Tween-80). Besides, the T/C (dose: 6.0 mg/kg/injection, schedule: Q01DX009 (ip), vehicle: saline with Tween-80) is 109 % of control.
On to `CC1=C(C(=O)CC(=O)C(=O)Nc2ccc(C)cc2C)Sc2ccccc2N1`, for which the T/C runs as follows: (dose: 60.0 mg/kg/injection, schedule: Q01DX005 (ip), vehicle: saline with Tween-80) 104 % of control; (dose: 120.0 mg/kg/injection, schedule: Q01DX005 (ip), vehicle: saline with Tween-80) 101 % of control; (dose: 240.0 mg/kg/injection, schedule: Q01DX005 (ip), vehicle: saline with Tween-80) 94 % of control.
As to `C[As](C)SCC1OC(n2cnc3c(N)ncnc32)C2OC(C)(C)OC12` (configuration not stated), the T/C runs as follows: (dose: 12.5 mg/kg/injection, schedule: Q01DX009 (ip), vehicle: distilled water + Tween-80) 101 % of control; (dose: 25.0 mg/kg/injection, schedule: Q01DX009 (ip), vehicle: distilled water + Tween-80) 100 % of control; (dose: 50.0 mg/kg/injection, schedule: Q01DX009 (ip), vehicle: distilled water + Tween-80) 110 % of control; (dose: 100.0 mg/kg/injection, schedule: Q01DX009 (ip), vehicle: distilled water + Tween-80) 110 % of control; (dose: 200.0 mg/kg/injection, schedule: Q01DX009 (ip), vehicle: distilled water + Tween-80) 101 % of control.
As for `CC1=C(CO)C(=O)OC(C(C)C2CCC3C4CC5OC56C(O)C(N5CCCCCC5)CC(=O)C6(C)C4CCC23C)C1` (configuration not stated), the T/C (dose: 9.38 mg/kg/injection, schedule: Q01DX005 (ip), vehicle: Klucel (hydroxypropylcellulose) (HPC)) is 101 % of control; the T/C (dose: 18.75 mg/kg/injection, schedule: Q01DX005 (ip), vehicle: Klucel (hydroxypropylcellulose) (HPC)) is 101 % of control; the T/C (dose: 37.5 mg/kg/injection, schedule: Q01DX005 (ip), vehicle: Klucel (hydroxypropylcellulose) (HPC)) is 105 % of control; the T/C (dose: 75.0 mg/kg/injection, schedule: Q01DX005 (ip), vehicle: Klucel (hydroxypropylcellulose) (HPC)) is 105 % of control; the T/C (dose: 150.0 mg/kg/injection, schedule: Q01DX005 (ip), vehicle: Klucel (hydroxypropylcellulose) (HPC)) is 104 % of control.
Consider `COC1(OC)C(Cl)=C(Cl)C(Cl)=C1Cl`, for which the T/C is, setting by setting: (dose: 6.25 mg/kg/injection, schedule: Q01DX009 (ip), vehicle: saline with Tween-80) 95 % of control; (dose: 12.5 mg/kg/injection, schedule: Q01DX009 (ip), vehicle: saline with Tween-80) 118 % of control; (dose: 25.0 mg/kg/injection, schedule: Q01DX009 (ip), vehicle: saline with Tween-80) 113 % of control.
